# Source: paper PMC9090415, “Discovery of small molecule inhibitors of Plasmodium falciparum apicoplast DNA polymerase” (Journal of Enzyme Inhibition and Medicinal Chemistry, 2022)
# pIC50: −log10 of the molar value.
# Target: P. falciparum apicoplast DNA polymerase (Pf-apPOL) (Plasmodium falciparum, UniProt Q8ILY1)
# Assay: Fluorescence-based high-throughput DNA polymerase assay (molecular beacon), primary screen and dose-response;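 on % inhibition ApPOL 90': test concentration in µM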;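 on % inhibition apPOL 180': test concentration in µM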
# Format: biochemical
# Summary of the method: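 Single-point screening used 10 µM compound with 20 nM polymerase, 20 nM hairpin substrate and 6 µM dNTPs for 90 min at 25 °C. Confirmatory titrations (2.5–80 µM) followed fluorescence at three times, and IC50 was derived from a fit including a cooperativity term n.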
# [1] = DRC-1; concentration 80 (unit not given); 10'
# [2] = primary screen value of the 186 hits; unit not given; 90 min, 10 µM
# [3] = primary screen value; head prints only 'DNA Pol'; 90 min, 10 µM
# [4] = supplemental file 2, sheet IC50 nontoxic compounds; Pf-apPOL
# P. falciparum apicoplast DNA polymerase (Pf-apPOL), sequence (Q8ILY1 entry or part of it): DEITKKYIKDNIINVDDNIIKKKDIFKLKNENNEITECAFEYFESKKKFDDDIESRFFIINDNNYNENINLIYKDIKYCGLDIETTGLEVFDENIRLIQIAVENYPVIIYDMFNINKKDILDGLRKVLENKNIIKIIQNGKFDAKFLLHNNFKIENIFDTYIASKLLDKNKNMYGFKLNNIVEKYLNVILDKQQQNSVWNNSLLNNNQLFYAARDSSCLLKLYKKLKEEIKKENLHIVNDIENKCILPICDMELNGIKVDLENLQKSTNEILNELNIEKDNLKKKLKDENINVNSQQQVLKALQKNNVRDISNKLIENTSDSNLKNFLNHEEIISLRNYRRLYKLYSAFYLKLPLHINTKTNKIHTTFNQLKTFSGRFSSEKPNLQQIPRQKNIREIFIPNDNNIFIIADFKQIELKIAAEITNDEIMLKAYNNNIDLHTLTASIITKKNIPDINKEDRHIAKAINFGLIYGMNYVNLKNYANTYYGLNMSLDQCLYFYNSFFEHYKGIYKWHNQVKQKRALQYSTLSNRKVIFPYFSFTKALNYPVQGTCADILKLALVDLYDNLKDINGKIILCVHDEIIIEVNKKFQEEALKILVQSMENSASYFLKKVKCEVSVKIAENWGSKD
smiles,measurement,setting,value
CCCN1COc2ccc3c(=O)c(-c4ccccc4)coc3c2C1 [KU0199556],% inhibition Apo pol 10',DRC-1; concentration 2.5; 10',3.335%
same,% inhibition Apol 90',DRC-1; concentration 2.5; 90',6.953%
same,% inhibition apPOL 180',DRC-1; concentration 2.5; 180',12.8227%
same,% inhibition Apo pol 10',DRC-1; concentration 5; 10',0.6816%
same,% inhibition Apol 90',DRC-1; concentration 5; 90',8.234%
same,% inhibition apPOL 180',DRC-1; concentration 5; 180',17.5775%
same,% inhibition Apo pol 10',DRC-1; concentration 10; 10',12.2491%
same,% inhibition Apol 90',DRC-1; concentration 10; 90',22.7546%
same,% inhibition apPOL 180',DRC-1; concentration 10; 180',37.4083%
same,% inhibition Apo pol 10',DRC-1; concentration 20; 10',29.2216%
same,% inhibition Apol 90',DRC-1; concentration 20; 90',42.6091%
same,% inhibition apPOL 180',DRC-1; concentration 20; 180',58.6511%
same,% inhibition Apo pol 10',DRC-1; concentration 40; 10',57.482%
same,% inhibition Apol 90',DRC-1; concentration 40; 90',69.5557%
same,% inhibition apPOL 180',DRC-1; concentration 40; 180',84.4582%
same,% inhibition Apo pol 10',[1],71.548%
same,% inhibition Apol 90',DRC-1; concentration 80; 90',77.7995%
same,% inhibition apPOL 180',DRC-1; concentration 80; 180',92.1066%
same,% inhibition Apo pol 5',DRC-2; 5'; concentration 80,51%
same,% inhibition Apol 40',DRC-2; 40'; concentration 80,51%
same,% inhibition ApPOL 90',DRC-2; 90'; concentration 20,39%
same,% inhibition ApPOL 90',DRC-2; 90'; concentration 40,51%
same,% inhibition apPOL 180',DRC-2; 180'; concentration 80,39%
same,% inhibition Apo pol 5',DRC-2; concentration 2.5; 5',7.48%
same,% inhibition Apol 40',DRC-2; concentration 2.5; 40',5%
same,% inhibition ApPOL 90',DRC-2; concentration 2.5; 90',3.57%
same,% inhibition apPOL 180',DRC-2; concentration 2.5; 180',-2.43%
same,% inhibition Apo pol 5',DRC-2; concentration 5; 5',10%
same,% inhibition Apol 40',DRC-2; concentration 5; 40',0.118%
same,% inhibition ApPOL 90',DRC-2; concentration 5; 90',-8%
same,% inhibition apPOL 180',DRC-2; concentration 5; 180',-84%
same,% inhibition Apo pol 5',DRC-2; concentration 10; 5',25%
same,% inhibition Apol 40',DRC-2; concentration 10; 40',23%
same,% inhibition ApPOL 90',DRC-2; concentration 10; 90',20%
same,% inhibition apPOL 180',DRC-2; concentration 10; 180',6.45%
same,% inhibition Apo pol 5',DRC-2; concentration 20; 5',41%
same,% inhibition Apol 40',DRC-2; concentration 20; 40',42%
same,% inhibition ApPOL 90',DRC-2; concentration 20; 90',39%
same,% inhibition apPOL 180',DRC-2; concentration 20; 180',22%
same,% inhibition Apo pol 5',DRC-2; concentration 40; 5',52%
same,% inhibition Apol 40',DRC-2; concentration 40; 40',55%
same,% inhibition ApPOL 90',DRC-2; concentration 40; 90',51%
same,% inhibition apPOL 180',DRC-2; concentration 40; 180',38%
same,% inhibition Apo pol 5',DRC-2; concentration 80; 5',51%
same,% inhibition Apol 40',DRC-2; concentration 80; 40',51%
same,% inhibition ApPOL 90',DRC-2; concentration 80; 90',48%
same,% inhibition apPOL 180',DRC-2; concentration 80; 180',39%
same,DNA Pol,[2],28
same,DNA Pol,[3],28
O=C(O)CC1SC(c2ccc3c(c2)OCO3)=NC1=O (stereo not shown) [Molecule 69],pIC50,[4],4.53
C#CC(C=CC)OC(=O)c1ccccc1C(=O)O (stereo not shown) [Molecule 61],pIC50,[4],4.74
Cc1ccc(CNC(=O)c2cnn3c(O)cc(CSc4ccc(Cl)cc4)nc23)cc1 [Molecule 99],pIC50,[4],5.04
Cc1cccc(-c2nnc3ccc(NS(=O)(=O)c4ccc(C)c(C)c4)nn23)c1 [Molecule 40],pIC50,[4],4.99
CCN1C(=O)C(=Cc2cccc(OC)c2O)SC1=S [Molecule 78],pIC50,[4],4.46
COc1ccc2c(c1)C(c1ccccc1OC)CC(=O)O2 (stereo not shown) [Molecule 38],pIC50,[4],4.95
O=c1cc(-c2ccccc2Cl)oc2c(NS(=O)(=O)c3cc(Cl)cc(Cl)c3O)ccc(O)c12 [KU0104277],% inhibition Apo pol 10',DRC-1; 10'; concentration 2.5,-4.204%
same,% inhibition Apo pol 10',DRC-1; 10'; concentration 5,6.708%
same,% inhibition Apo pol 10',DRC-1; 10'; concentration 10,7.439%
same,% inhibition Apo pol 10',DRC-1; 10'; concentration 20,27.5333%
same,% inhibition Apo pol 10',DRC-1; 10'; concentration 40,73.9275%
same,% inhibition Apo pol 10',DRC-1; 10'; concentration 80,90.8547%
same,% inhibition Apol 90',DRC-1; 90'; concentration 2.5,-8.287%
same,% inhibition Apol 90',DRC-1; 90'; concentration 5,2.039%
same,% inhibition Apol 90',DRC-1; 90'; concentration 10,0.6918%
same,% inhibition Apol 90',DRC-1; 90'; concentration 20,20.1462%
same,% inhibition Apol 90',DRC-1; 90'; concentration 40,69.1951%
same,% inhibition Apol 90',DRC-1; 90'; concentration 80,87.9641%
same,% inhibition apPOL 180',DRC-1; 180'; concentration 2.5,-13.4888%
same,% inhibition apPOL 180',DRC-1; 180'; concentration 5,-5.423%
same,% inhibition apPOL 180',DRC-1; 180'; concentration 10,-7.477%
same,% inhibition apPOL 180',DRC-1; 180'; concentration 20,7.115%
same,% inhibition apPOL 180',DRC-1; 180'; concentration 40,55.1056%
same,% inhibition apPOL 180',DRC-1; 180'; concentration 80,83.6554%
same,% inhibition Apo pol 5',DRC-2; 5'; concentration 2.5,-4%
same,% inhibition Apo pol 5',DRC-2; 5'; concentration 5,-2.32%
same,% inhibition Apo pol 5',DRC-2; 5'; concentration 10,35%
same,% inhibition Apo pol 5',DRC-2; 5'; concentration 20,11%
same,% inhibition Apo pol 5',DRC-2; 5'; concentration 40,63%
same,% inhibition Apo pol 5',DRC-2; 5'; concentration 80,65%
same,% inhibition Apol 40',DRC-2; 40'; concentration 2.5,-1.34%
same,% inhibition Apol 40',DRC-2; 40'; concentration 5,-1%
same,% inhibition Apol 40',DRC-2; 40'; concentration 10,42%
same,% inhibition Apol 40',DRC-2; 40'; concentration 20,11%
same,% inhibition Apol 40',DRC-2; 40'; concentration 40,74%
same,% inhibition Apol 40',DRC-2; 40'; concentration 80,75%
same,% inhibition ApPOL 90',DRC-2; 90'; concentration 2.5,-1%
same,% inhibition ApPOL 90',DRC-2; 90'; concentration 5,0.948%
same,% inhibition ApPOL 90',DRC-2; 90'; concentration 10,41%
same,% inhibition ApPOL 90',DRC-2; 90'; concentration 20,9%
same,% inhibition ApPOL 90',DRC-2; 90'; concentration 40,75%
same,% inhibition ApPOL 90',DRC-2; 90'; concentration 80,76%
same,% inhibition apPOL 180',DRC-2; 180'; concentration 2.5,-2.11%
same,% inhibition apPOL 180',DRC-2; 180'; concentration 5,-2.49%
same,% inhibition apPOL 180',DRC-2; 180'; concentration 10,33%
same,% inhibition apPOL 180',DRC-2; 180'; concentration 20,3.69%
same,% inhibition apPOL 180',DRC-2; 180'; concentration 40,72%
same,% inhibition apPOL 180',DRC-2; 180'; concentration 80,73%
same,% inhibition ApPOL 90',conc. 2.5; 90'; DRC-2,-1%
same,% inhibition Apol 40',conc. 5; 40'; DRC-2,-1%
same,% inhibition Apo pol 5',conc. 20; 5'; DRC-2,11%
same,% inhibition Apol 40',conc. 20; 40'; DRC-2,11%
same,% inhibition ApPOL 90',conc. 40; 90'; DRC-2,75%
same,% inhibition Apol 40',conc. 80; 40'; DRC-2,75%
same,DNA Pol,"primary screen value by plate and well; 90 min, 10 µM",36
same,DNA Pol,[2],36
COc1cc(Cl)c(C)cc1NC(=O)Cn1ccc2c(=O)[nH]ccc21 [Molecule 33],pIC50,[4],4.99
COc1ccc(C(=O)N2CCc3c(nc4cc(-c5ccccc5Cl)[nH]n4c3=O)C2)cn1 [Molecule 26],pIC50,[4],5.02
COc1ccc(C2CC(c3ccc(Cl)cc3Cl)Nc3nc(N)nn32)cc1OC (stereo not shown) [Molecule 43],pIC50,[4],4.93
Cc1ccc(C(=O)/C=C/C=C/C=C/N(C)C)o1 [Molecule 96],pIC50,[4],5.31
"CCCCCc1c2c(cc(O)c1C(=O)O)OC(=O)c1c(cc(OC)cc1C(=O)CCCC)O2 [Molecule 24, CCCCCc1c2Oc3cc(OC)cc(c3C(=O)Oc2cc(c1C(=O)O)O)C(=O)CCCC]",% inhibition Apo pol 10',DRC-1; concentration 2.5; 10',18.1675%
same,% inhibition Apol 90',DRC-1; concentration 2.5; 90',17.5572%
same,% inhibition apPOL 180',DRC-1; concentration 2.5; 180',13.8829%
same,% inhibition Apo pol 10',DRC-1; concentration 5; 10',31.5197%
same,% inhibition Apol 90',DRC-1; concentration 5; 90',20.3733%
same,% inhibition apPOL 180',DRC-1; concentration 5; 180',11.4977%
same,% inhibition Apo pol 10',DRC-1; concentration 10; 10',51.0452%
same,% inhibition Apol 90',DRC-1; concentration 10; 90',38.7515%
same,% inhibition apPOL 180',DRC-1; concentration 10; 180',28.4609%
same,% inhibition Apo pol 10',DRC-1; concentration 20; 10',86.3655%
same,% inhibition Apol 90',DRC-1; concentration 20; 90',81.3702%
same,% inhibition apPOL 180',DRC-1; concentration 20; 180',74.6955%
same,% inhibition Apo pol 10',DRC-1; concentration 40; 10',94.8127%
same,% inhibition Apol 90',DRC-1; concentration 40; 90',91.3399%
same,% inhibition apPOL 180',DRC-1; concentration 40; 180',88.9652%
same,% inhibition Apo pol 10',[1],96.1248%
same,% inhibition Apol 90',DRC-1; concentration 80; 90',93.64%
same,% inhibition apPOL 180',DRC-1; concentration 80; 180',92.215%
same,% inhibition Apo pol 5',DRC-2; 5'; concentration 2.5,11%
same,% inhibition Apol 40',DRC-2; 40'; concentration 10,51%
same,% inhibition Apol 40',DRC-2; 40'; concentration 20,43%
same,% inhibition ApPOL 90',DRC-2; 90'; concentration 2.5,11%
same,% inhibition ApPOL 90',DRC-2; 90'; concentration 10,51%
same,% inhibition apPOL 180',DRC-2; 180'; concentration 5,11%
same,% inhibition apPOL 180',DRC-2; 180'; concentration 10,43%
same,% inhibition Apo pol 5',DRC-2; concentration 2.5; 5',11%
same,% inhibition Apol 40',DRC-2; concentration 2.5; 40',14%
same,% inhibition ApPOL 90',DRC-2; concentration 2.5; 90',11%
same,% inhibition apPOL 180',DRC-2; concentration 2.5; 180',6%
same,% inhibition Apo pol 5',DRC-2; concentration 5; 5',18%
same,% inhibition Apol 40',DRC-2; concentration 5; 40',20%
same,% inhibition ApPOL 90',DRC-2; concentration 5; 90',19%
same,% inhibition apPOL 180',DRC-2; concentration 5; 180',11%
same,% inhibition Apo pol 5',DRC-2; concentration 10; 5',42%
same,% inhibition Apol 40',DRC-2; concentration 10; 40',51%
same,% inhibition ApPOL 90',DRC-2; concentration 10; 90',51%
same,% inhibition apPOL 180',DRC-2; concentration 10; 180',43%
same,% inhibition Apo pol 5',DRC-2; concentration 20; 5',35%
same,% inhibition Apol 40',DRC-2; concentration 20; 40',43%
same,% inhibition ApPOL 90',DRC-2; concentration 20; 90',41%
same,% inhibition apPOL 180',DRC-2; concentration 20; 180',32%
same,% inhibition Apo pol 5',DRC-2; concentration 40; 5',49%
same,% inhibition Apol 40',DRC-2; concentration 40; 40',65%
same,% inhibition ApPOL 90',DRC-2; concentration 40; 90',66%
same,% inhibition apPOL 180',DRC-2; concentration 40; 180',62%
same,% inhibition Apo pol 5',DRC-2; concentration 80; 5',56%
same,% inhibition Apol 40',DRC-2; concentration 80; 40',76%
same,% inhibition ApPOL 90',DRC-2; concentration 80; 90',80%
same,% inhibition apPOL 180',DRC-2; concentration 80; 180',81%
same,DNA Pol,[2],33
same,DNA Pol,[3],33
